Source: patent US4309425A (priority 1980, dated 1982)

Assays:
two-spotted mites = two-spotted mites on bean plants, spray, mortality after two days; assay type: in vivo; settings: Tetranychus urticae, 48 h, read-out: % Mortality (2 days); for mortality at 0.00025 %: spray concentration .00025%; for mortality at 0.0005 %: spray concentration .0005%; for mortality at 0.001 %: spray concentration .001%
Description: Mortality was evaluated two days after spraying.
Mortality after two days is set forth below.

mosquito larvae = mosquito larvae test (failure to become adults); assay type: in vivo; settings: 27°-30°, continuous light
Description: Twenty-five newly hatched mosquito larvae were placed in 25 ml of distilled water in 4 oz glass jars, and 10 mg diet, consisting of 2 parts liver powder and 1 part brewer's yeast, was added.

[1] = system: bean aphids (Aphis fabae); assay: bean aphids on nasturtium leaves, spray; assay type: in vivo; settings: 24 hours, read-out: 24 Hours Evaluation (% Kill)
Description: Stems of nasturtium leaves infested with bean aphids (Aphis fabae) were placed in individual vials of water. The leaves were sprayed to run-off with a series of suspensions of N-[N-[2-chloro-5-(trifluoromethyl)phenyl]-N-[2,4-dinitro-6-(trifluoromethyl)-phenyl]aminothio]-N,4-dimethylbenzenesulfonamide. Suspensions were prepared by dissolving 50 mg of the compound in 10 ml of acetone, adding 1 ml of 1% methocel 15, and diluting to volume with Duponol®:water at 1:3000. Evaluations with respect to % kill 24 hours later are set forth below.

Pythium = Pythium infested soil test, cotton; assay type: in vivo; settings: 1.5 kg/ha, 8 days
Source text: Pythium infested soil was placed in a 900 cc cup. Compounds of this invention were mixed at a rate of 1.5 kg/ha in a section 2" wide×2" deep×4" long to simulate an in-the-row application. Five cotton seeds were planted in the treated soil. After 8 days, the cotton plants were removed and rated for disease control.

Phytophthora infestans [2] = assay: whole plant or invertebrate; assay type: in vivo; settings: in Solanum lycopersicum, 96 h, read-out: % control tomato late blight in a residual wash-off test
[3] = system: organo-phosphorous resistant two-spotted spider mites; assay: organo-phosphorous resistant two-spotted spider mites on bean plants, spray, mortality after two days; settings: Tetranychus urticae, 48 h, read-out: % Mortality (2 days)
[4] = system: adult cotton boll weevils (Anthonomus grandis); assay: adult cotton boll weevils spray test; assay type: in vivo; settings: 1% acetone solution, 24 hours
Description: Five adult cotton boll weevils (Anthonomus grandis) were confined in a 4-oz. wide mouth jar. These were sprayed with a 1% acetone solution of the indicated compounds. Percent mortality after 24 hours is set forth below.

adult houseflies = adult houseflies spray test; assay type: in vivo, housefly; settings: Musca domestica; 1% acetone solutions, 24 hours
Source text: Twenty adult houseflies were confined in each of several cylindrical stainless steel cages (7.5 cm D×4 cm high) with wire screens of the ends. These were sprayed with 1% acetone solutions of the indicated compounds.

[5] = system: red-legged grasshoppers (Melanoplus femurrubrum); assay: red-legged grasshoppers spray test; assay type: in vivo; settings: 10 ppm in acetone, 48 hours
Description: Five red-legged grasshoppers (Melanoplus femurrubrum) were confined in each of several cylindrical stainless steel cages (7.5 cm D×4 cm high) with wire screens at the end. These were sprayed with 10 ppm concentration of the indicated compounds in acetone solution. Percent mortality after 48 hours is recorded below.

[6] = system: brown dog ticks (Rhipicephalus sanguineus); assay: brown dog ticks spray test; assay type: in vivo; settings: 48 h, 12.5 ppm in acetone, forty eight hours
Description: Four-ounce wide mouth jars, each containing 10 brown dog ticks (Rhipicephalus sanguineus), were sprayed with 12.5 ppm concentration of the indicated compounds in acetone solution. The ticks were confined with caps which were also sprayed. Forty eight hours later, percent mortality was determined.

Venturia inaequalis = assay: apple scab preventive test; assay type: in vivo; settings: 10-12 days
Description: Compounds of this invention are dissolved in acetone in an amount equal to 6% of the final volume and then suspended at a concentration of 20 ppm in purified water containing 25 ppm of the surfactant Alkanol® XC (sodium alkyl naphthalene sulfonate). This suspension is sprayed to the point of run-off on apple seedlings. The following day, the plants are inoculated with a spore suspension of the fungus Venturia inaequalis and incubated in a growth room for 10-12 days. Disease ratings are then made. […] Phytotoxicity in the form of foliar burn was observed on some of the plants in association with disease control.

Phytophthora infestans [7] = assay type: in vivo; settings: 20 ppm, 4 days
Rhizopus = assay: Rhizopus-corn meal mixture overspray test; settings: 168 h, 100 ppm, 20° C., 7 days, read-out: % control Rhizopus
Description: Compounds of this invention were dissolved in acetone in an amount equal to 6% of final volume and then suspended at a concentration of 100 ppm in purified water containing 500 ppm of the surfactant Alkanol® XC (sodium alkyl naphthalene sulfonate). This solution was oversprayed on a Rhizopus-corn meal mixture in 6 cm aluminum cups. The sprayed plates were placed in a closed plastic bag, stored at 20° C. for 7 days, and then rated.
The untreated cups were completely covered with Rhizopus mycelial growth, but the treated cups were mostly free of growth by this disease-causing organism.

Row | SMILES | mortality at 0.00025 % (two-spotted mites) [%] | mortality at 0.0005 % (two-spotted mites) [%] | mortality at 0.001 % (two-spotted mites) [%] | EC50 (concentration at which 50% of the initial larvae fail to become adults) (mosquito larvae) [ppm] | mortality at 0.005 % ([1]; spray concentration 0.005%) [%] | mortality at 0.1 % ([1]; spray concentration 0.1%) [%] | % control Pythium (Pythium) [%] | pest or weed control at 20 ppm (Phytophthora infestans [2]) [%] | mortality at 0.0005 % [3] [%] | mortality at 0.001 % [3] [%] | mortality at 0.002 % [3] [%] | mortality at 1 % [4] [%] | mortality at 1 % (adult houseflies) [%] | mortality at 10 ppm [5] [%] | mortality at 12.5 ppm [6] [%] | pest or weed control at 20 ppm (Venturia inaequalis) [%] | % control tomato late blight in a preventive test (Phytophthora infestans [7]) [%] | inhibition of growth at 100 ppm (Rhizopus) [%]
1 | Cc1ccc(S(=O)(=O)N(C)SN(c2cc(C(F)(F)F)ccc2Cl)c2c([N+](=O)[O-])cc([N+](=O)[O-])cc2C(F)(F)F)cc1 | 100 | 100 | 100 | 0.00081 | 100 | 100 | 0 | 100 | 93 | 97 | 100 | – | – | – | – | – | – | –
2 | CCCCN(SN(c1cc(C(F)(F)F)ccc1Cl)c1c([N+](=O)[O-])cc([N+](=O)[O-])cc1C(F)(F)F)S(=O)(=O)c1ccc(C)cc1 | – | – | – | – | – | – | 0 | 100 | – | – | – | 100 | 100 | 100 | 100 | 75 | 100 | –
3 | CCCCN(SN(c1cc(C(F)(F)F)ccc1Cl)c1c([N+](=O)[O-])cc([N+](=O)[O-])cc1C(F)(F)F)S(=O)(=O)c1ccccc1C | 100 | 100 | 100 | – | – | – | – | – | 90 | 89 | 100 | 100 | 100 | – | – | 100 | – | 90
